# According to patent US20120302614A1, “METHOD FOR IMPROVING CEREBRAL CIRCULATION OR TREATING A CEREBRAL BLOOD FLOW DISORDER” (OSAKA UNIVERSITY, priority 2007, published 2012):
# Test system: Aβ injection model (Aβ 1-40 administered intracerebroventricularly)
# Experiment: Morris water maze tests in Aβ injection model, Test Example 2
# Type: in vivo, ddY mouse
# Details: olmesartan medoxomil 1 mg/kg/day, hydralazine 30 mg/kg/day
# Description: The therapeutic effect of olmesartan medoxomil in Aβ injection model and the dose dependency thereof were examined according to the following experimental schedule. [Experimental Schedule]: Prior to the experiment, 8-week old male ddY mice were administered olmesartan medoxomil (0.5 mg/kg/day, 1 mg/kg/day, 3 mg/kg/day or 6 mg/kg/day) or distilled water orally for four weeks (day −28 to −1). Then, Aβ 1-40 was administered to the mice intracerebroventricularly (day 0). (Although Aβ 1-40 was administered into one of the lateral ventricles in WO 2006/059777, Aβ 1-40 was administered in Test Example 1 to both lateral ventricles with an interval of one day between two administrations. Except for this point, Aβ 1-40 administration was performed in the same manner as in WO 2006/059777.) From one week thereafter, a behavioral test to evaluate cognitive function (Morris water maze test; Morris R et al., J Neuroscience Methods 1984, 11, 47-60) was performed (day 7 to 12). As a negative control, mice which had received oral administration of distilled water for four weeks were administered Aβ 40-1 intracerebroventricularly. The administration of olmesartan medoxomil or distilled water was continued until the end of the behavioral test. Measurements were performed as described below. • Hidden platform test: A platform is placed below the water surface of a water pool 150 cm in diameter filled with white water-colored. Mice are released into the water, and the time it takes them to reach the platform is measured. This trial is performed three times a day and for five consecutive days. As they learn, mice become able to reach the platform more quickly day by day. • Visible platform test: Mice are released into the water under such conditions that they can see the platform. The time it takes them to reach the platform is measured. • Probe test: The platform is removed, and mice are released and allowed to swim freely. Those mice with good learning/memory swim in the quadrant where the platform was located searching for the platform. The time they spent in that quadrant is measured. • Annnulus crossing: The number of times mice crossed the platform in the probe test is counted. […] The dose of olmesartan medoxomil was set at a low level of 1 mg/kg/day in view of the experimental results of Test Example 1. […] As behavioral tests to assess cognitive function, Morris water maze tests were performed as in Test Example 1 (hidden platform test, visible platform test and probe test) and, in addition, an open field test was also performed. Further, long-term retention, working memory task and swimming speed were also examined in the Morris water maze tests. Measurements were performed as described below. • Open field test: A cubic box (30×30×30 cm) is used. On each X and Y bank of the open-field area, two infrared beams are attached 2 cm above the floor at a 10 cm interval. The number of successive interceptions by the subject of the two adjoining beams on each bank is counted as locomotion score. • Long-term retention: On day 12 after the completion of the hidden platform test as a water maze test, mice are released into the water and the time it takes them to reach the platform is measured. • Working memory task: The platform is transferred and fixed at a new place. Mice are given four consecutive trials at intervals of as short as 20 seconds, and the time it takes them to reach the platform is measured. […] In order to eliminate this influence, swimming speed is measured.
smiles,measurement,setting,value
"CCCc1nc(C(C)(C)O)c(C(=O)OCc2oc(=O)oc2C)n1Cc1ccc(-c2ccccc2-c2nnn[nH]2)cc1 [olmesartan medoxomil, (5-methyl-2-oxo-1,3-dioxolen-4-yl)methyl 4-(1-hydroxy-1-methylethyl)-2-propyl-1-[4-[2-(tetrazol-5-yl)phenyl]phenyl]methyl-imidazole-5-carboxylate]",annulus crossings: number of platform crossings compared to Aβ 1-40 administration group,Aβ 1-40 + drug,increased
same,hidden platform test: time to reach the platform,Aβ 1-40 + drug,shortened through successive sessions
same,long-term retention: time to reach the platform compared to Aβ 1-40 administration group,day 17,shortened
same,"spatial memory impairment and learning disability evoked by Aβ 1-40 (Morris water test, summary)",,significantly improved
same,working memory task: time to reach the platform compared to Aβ 1-40 administration group,,shortened
